Experimental data published in US20240307335A1, “IRG Blockade to Armor CAR T Cells Against Myeloid Dysfunction” (ROSWELL PARK CANCER INSTITUTE CORPORATION, priority 2023, published 2024).

Tests used:
[1] = tested on: CAR T cells cocultured with Eμ-myc cells with or without macrophages (imMac); experiment: Expansion assay of mCherry+ CAR T cells (IncuCyte live cell analysis) in cocultures; type: cell-based, mouse; settings: for CAR T cell expansion: CAR T cells cocultured with Eμ-myc cells without macrophages, agent present; for CAR T cell expansion / CAR T cell expansion in cocultures with imMac: over 48 h
Method: Macrophage development and polarization: BMDMs were generated from bone marrow cells harvested from femurs and tibias of WT or iNOS^−/− mice. […] On day 3, 10 ml of fresh medium with 20 ng/ml M-CSF was added. On day 5, the culture medium was entirely discarded and replaced by 15 ml of fresh medium with 20 ng/ml M-CSF. On day 6, BMDMs were activated for 24 h with 20 ng/ml of IL-4 and IL-10 (Peprotech) to develop imMac or cultured in media only to use as unMac. M-CSF (20 ng/ml) was added during activation with cytokines. On day 7, adherent cells were harvested by gentle scraping and used for in vitro experiments.
Expansion assay: The expansion of mCherry^+ CAR T cells was determined by an IncuCyte S3 live cell analysis system (Essen Bioscience). 2×10^4 Eμ-myc cells and 2×10^4 CAR T cells were cocultured in the absence or presence of 0.5×10^4 macrophages (CAR T:Eμ-myc cell:Macrophage=1:1:0.25, unless otherwise indicated in the figures) in a 96-well black-walled clear bottom plate in 120 μl of media. Cell images were captured at 4× magnification. The expansion index was calculated by dividing the total integrated red intensity (RCU×m^2/mm^2) at each time point by the first time point.
Immunoregulatory actions of macrophages on CAR T cells: To explore how M2-like macrophages may impact the cellular function of CAR T cells, the study employed a syngeneic coculture system (FIG. 3A). […] The BMDMs were either unpolarized (unMac) or induced to differentiate into M2-like macrophages by culturing with type 2 cytokines IL-4 and IL-10. […] The study next explored the impact of imMac on CAR T cell effector function. To exclude the direct contribution of macrophage effector activities in these functional assays, CAR T cells, Eμ-myc cells, and macrophages were first cocultured for 48 hours (FIG. 3G). Next, CAR T cells isolated from the cocultures were evaluated for their effector function against fresh Eμ-myc cells.

Eμ-myc B cell tumors = experiment: Survival of Eμ-myc tumor-bearing mice treated with CAR T cells and L-NIL; type: in vivo, mouse; settings: combination of 1928z CAR T cells and L-NIL (i.p. once per day, 20 mg/kg) compared to 1928z CAR T cells alone; Eμ-myc tumors in peritoneal cavity
Method: Animal experiment: Six- to 10-week-old Rag1^+/+ mice of both sexes were intraperitoneally (i.p.) injected with 3×10^6 Eμ-myc-GFP-FFL cells to generate tumors localized in peritoneal cavity. Tumor engraftment was verified by bioluminescence imaging one day before CAR T cell transfer. Mice were randomized to different treatment groups without differences in pre-treatment tumor load. Seven days after tumor cell inoculation, mice were injected i.p. with 5×10^6 CAR T cells in 300 μl PBS. For survival experiments, L-NIL or PBS was administered i.p. once per day at 20 mg/kg body weight starting on the same day of tumor cell injection. […] Bioluminescence imaging was performed by IVIS Lumina III In Vivo Imaging System (PerkinElmer) with Living Image software (PerkinElmer).

CAR T cells [2] = experiment: Seahorse assay (ECAR, OCR) on CAR T cells from cocultures; type: cell-based, mouse; settings: L-NIL 50 μM; coculture 48 h
Method: (§1) CAR T cell isolation from initial coculture for subsequent downstream assays: 1×10^6 CAR T cells and 1×10^6 Eμ-myc-GFP-FFL cells were cocultured in the absence or presence of 0.25×10^6 macrophages in a 6-well plate in 6 ml of media for 48 h. After initial coculture, cells were harvested, and T cells were isolated using Mouse T Cell Isolation Kit (STEMCELL Technologies). T cell purity was 100% as tested by flow cytometry. Percentage of CAR-expressing T cells was determined with flow cytometry and were subsequently used for downstream assays.
Seahorse assay: ECAR and OCR were measured using a Seahorse Extracellular Flux Analyzer (Agilent Technologies). XF96 microplates were coated with CellTak a day before analyses. To assay glycolytic function, T cells were resuspended in glucose-free XF medium supplied with 2 mM L-glutamine and 1 mM sodium pyruvate and seeded at 2×10^5 cells in 180 μl per well. Following incubation in a CO2-free incubator for 60 min at 37° C. for pH stabilization, ECAR was measured in response to 10 mM glucose, 1 μM oligomycin, and 50 mM 2-deoxyglucose. […] Following incubation in a CO2-free incubator for 60 min at 37° C. for pH stabilization, OCR was measured in response to 1 μM oligomycin, 1 μM FCCP, and 0.5 μM rotenone and antimycin.

[3] = tested on: arginine metabolism by imMac; experiment: Global metabolomics (LC-MS) of coculture supernatants; type: cell-based, mouse; settings: L-NIL (50 PM)
Method: Metabolomics and ^13C6-labeled glucose tracing analyses: For global metabolomics analysis of cell-cultured medium, the cell-free medium was obtained by performing rapid centrifugation (17,000×g, 10 sec, room temperature) to collect the supernatant. The metabolites present in 20 μl of the cell-cultured medium were then extracted using 80 μl of ice-cold MeOH. Following a 30 min incubation on ice and subsequent centrifugation (17,000×g, 20 min, 4° C.), the supernatant was subjected to LC-HRMS analysis.
LC-HRMS analysis was performed on a Vanquish UPLC coupled with a Q-Exactive HF mass spectrometer, employing the same conditions as the previously established methods 76. A ZIC-pHILIC LC column (4.6 mm inner diameter×150 mm length, […], MilliporeSigma, Burlington, MA) with a ZIC-pHILIC guard column (4.6 mm inner diameter×20 mm length, MilliporeSigma, Burlington, MA) was used for chromatographic separation at a column temperature of 30° C. The mobile phases included 10 mM (NH4)2CO3 and 0.05% NH40H in H2O for mobile phase A, and […]. The LC gradient conditions were as follows: 0 to 13 min: a decreasing of 80% to 20% of mobile phase B, 13 to 15 min: 20% of mobile phase B. The ionization was set to negative mode, with the MS scan range set to 60 to 1000 m/z. The mass resolution was 70,000, and the AGC target was 1×106. The sample loading volume was 5 μl. The unlabeled or ^13C-labeled metabolite peaks were extracted using EL-Maven with a metabolite standard-based in-house library. For global metabolomic profiling, peak areas of metabolites were normalized by the median value of the total for identified metabolite peak areas in each sample. For the ^13C-labeled metabolite peaks, the natural isotope peak area was corrected using IsoCor (Version 2.2).

[4] = tested on: CAR T cells cocultured with fresh Eμ-myc cells; experiment: Cytokine secretion assay (Ella automated ELISA) with CAR T cells isolated from initial coculture; type: cell-based, mouse; settings: for secretion of effector cytokine IFN-γ by CAR T cells / secretion of effector cytokine TNF-α by CAR T cells: CAR T cells isolated after 48 h coculture with Eμ-myc cells with NCX-4016 (100 PM) or PNT (50 μM), supernatants at 24 h
Method: as §1, with “([…]” for “(STEMCELL”, “T cell purity was 100% as tested by flow cytometry.” left out
Cytokine secretion assay: 2×10^4 Eμ-myc cells were cocultured with 2×10^4 CAR T cells in a 96-well plate in a total volume of 100 μl of media. Supernatants were collected and analyzed for IFN-γ and TNF-α secretion using Ella automated immunoassay system (Proteinsimple Bio-techne) according to manufacturer's instructions.

CAR T cells [5] = experiment: Global metabolomics on CAR T cells from cocultures; type: cell-based, mouse; settings: L-NIL (50 PM); coculture 48 h
Method: as §1
Global metabolomic profiling and 13C6-labeled glucose tracing of CAR T cells, 1×10^6 T cells were resuspended in either RPMI-1640 medium (RPMI+10% heat-inactivated dialyzed FBS) or ^13C6-glucose substituted RPMI-1640 medium (glucose-free RPMI+10% heat-inactivated dialyzed FBS+11.1 mM ^13C6-glucose). After 4 h incubation, cells were collected, rapidly centrifuged (17,000×g, 10 sec, room temperature), and medium was removed. T cells were washed with 1 ml of ice-cold PBS, and metabolites were extracted with 300 μl of 80% methanol via incubation at −80° C. for 15 min. Samples were centrifuged (17,000×g, 20 min, 4° C.), and supernatants were transferred to an Eppendorf tube and dried in a vacuum evaporator overnight. The dried extracts were resuspended in 20 μl of aqueous 50% methanol, clarified by centrifugation (17,000×g, 20 min, room temperature), and analyzed by LC-HRMS.
LC-HRMS analysis was performed on a Vanquish UPLC coupled with a Q-Exactive HF mass spectrometer, employing the same conditions as the previously established methods 76. A ZIC-pHILIC LC column (4.6 mm inner diameter×150 mm length, […], MilliporeSigma, Burlington, MA) with a ZIC-pHILIC guard column (4.6 mm inner diameter×20 mm length, MilliporeSigma, Burlington, MA) was used for chromatographic separation at a column temperature of 30° C. […]

Eμ-myc cells = experiment: Luciferase-based killing assay with CAR T cells isolated from initial coculture; type: cell-based, mouse; settings: lysis at 24 h; for lysis of Eμ-myc cells by CAR T cells (ability to kill tumor cells): CAR T cells isolated after 48 h initial coculture with Eμ-myc cells with NCX-4016 (100 μM) or PNT (50 μM), no macrophages
Method: as §1, with “([…]” for “(STEMCELL”, “T cell purity was 100% as tested by flow cytometry.” left out
Luciferase-based killing assay: 2×10^4 Eμ-ALL-GFP-FFL cells were cocultured with CAR T cells at different effector-to-target ratios in a 96-well white-walled plate in 100 μl of media. Following incubation, 100 μl luciferase substrate reagent (ONE-Glo Luciferase assay system, Promega) was added to each well. Target cells alone were plated at the same cell density to determine maximum luciferase signals. Emitted luminescence was detected in the microplate reader (GloMax, Promega). Percent lysis was determined as (1−sample signal/maximum signal)×100.

iNOS = experiment: Griess assay of NO levels in coculture supernatants; type: cell-based, mouse; settings: L-NIL 50 μM at 48 h, anti-IFN-γ 10 μg/mL at 44 h
Method: Griess assay: 2×10^4 Eμ-myc cells and 2×10^4 CAR T cells were cocultured in the presence or absence of 0.5×10^4 macrophages in a 96-well plate in 120 μl of media. Coculture supernatants were harvested, and nitric oxide levels were measured using Griess reagent system (Promega) according to manufacturer's instructions. Absorbance was read at 560 nm using microplate reader (GloMax, Promega), and NO2 concentrations were determined by standard curve. Standard curve was prepared with diluting 0.1M sodium nitrite standard (provided in the kit) with the culture media used for experiments.

[6] = CAR T cells and Eμ-myc cells with imMac, agent present (L-NIL 50 μM; anti-IFN-γ 10 μg/mL; c-PTIO)
[7] = CAR T cells isolated after 48 h coculture with imMac with agent (L-NIL 50 μM, supernatants at 36 h; anti-IFN-γ 10 μg/mL, at 24 h)

Compound: C=C(CC(=O)OCCCCCCCC)C(=O)O [4-OI, 4-octyl itaconate]
- CAR T cell expansion [1]: impaired CAR T cell expansion
- CAR T cell expansion ([1]; listed as 4OI): reduced CAR T cell expansion
- CAR T cell expansion ([1]; listed as 401): reduced CAR T cell expansion

Compound: COC(=O)CCC(=O)C(=O)OC [DMKG]
- rescue of CAR T cell expansion by supplementation ([1]; FIG. 15, iNOS in imMac disrupts TCA cycle progression in CAR T cells): failed to rescue CAR T cell expansion

Compound: CC(=N)NCCCC[C@H](N)C(=O)O.Cl [L-NIL, N^6-(1-Iminoethyl)-lysine, hydrochloride]
- survival of tumor-bearing mice (Eμ-myc B cell tumors): significantly improved survival
- CAR T cell expansion in cocultures with imMac [1, 6]: complete rescue of CAR T cell expansion
- glycolytic metabolic capacity (ECAR) of CAR T cells from cocultures with imMac (CAR T cells [2]): preserved
- oxidative metabolic capacity (OCR) of CAR T cells from cocultures with imMac (CAR T cells [2]): preserved
- production of citrulline in cocultures with imMac ([3]; coculture supernatants): attenuated
- levels of arginine in coculture supernatants ([3]; cocultures with imMac): remained comparable
- levels of ornithine in coculture supernatants ([3]; cocultures with imMac): remained comparable
- production of effector cytokine IFN-γ by CAR T cells [4, 7]: preserved
- production of effector cytokine TNF-α by CAR T cells [4, 7]: preserved
- depletion of dihydroxyacetone phosphate (DHAP) in CAR T cells cocultured with imMac (CAR T cells [5]): reversal
- depletion of fructose 1,6-bisphosphate (F1,6BP) in CAR T cells cocultured with imMac (CAR T cells [5]): reversal
- depletion of glyceraldehyde 3-phosphate (G3P) in CAR T cells cocultured with imMac (CAR T cells [5]): reversal
- lysis of Eμ-myc cells by CAR T cells (capacity to kill tumor cells) (Eμ-myc cells; CAR T cells isolated after 48 h initial coculture with Eμ-myc cells and imMac with agent (L-NIL 50 μM; anti-IFN-γ 10 μg/mL)): preserved the capacity of CAR T cells to kill tumor cells
- production of NO in cocultures with imMac (iNOS): attenuated

Compound: CC(=O)Oc1ccccc1C(=O)Oc1cccc(CO[N+](=O)[O-])c1 [NCX-4016]
- CAR T cell expansion [1]: inhibition of CAR T cell expansion
- secretion of effector cytokine IFN-γ by CAR T cells [4]: diminished
- secretion of effector cytokine TNF-α by CAR T cells [4]: diminished
- lysis of Eμ-myc cells by CAR T cells (ability to kill tumor cells) (Eμ-myc cells): diminished ability of CAR T cells to kill tumor cells

Compound: O=NOO [PNT, peroxynitrite]
- CAR T cell expansion [1]: inhibition of CAR T cell expansion
- secretion of effector cytokine IFN-γ by CAR T cells [4]: diminished
- secretion of effector cytokine TNF-α by CAR T cells [4]: diminished
- lysis of Eμ-myc cells by CAR T cells (ability to kill tumor cells) (Eμ-myc cells): diminished ability of CAR T cells to kill tumor cells

Compound: CC1(C)N([O])C(c2ccc(C(=O)O)cc2)=[N+]([O-])C1(C)C [c-PTIO, carboxyl-PTIO]
- CAR T cell expansion in cocultures with imMac [1, 6]: partially rescued the expansion of CAR T cells

Compound: NC(=O)NCCC[C@H](N)C(=O)O [citrulline]
- CAR T cell expansion [1]: did not impact the expansion of CAR T cells

Compound: N=C(NO)NCC[C@H](N)C(=O)O [nor-NOHA, N(omega)-hydroxy-nor-L-arginine]
- CAR T cell expansion in cocultures with imMac ([1]; physiological arginine concentration (150 μM), nor-NOHA (50 PM)): failed to rescue CAR T cell expansion
- CAR T cell expansion in cocultures with imMac ([1]; supraphysiological arginine concentration (1.15 mM) in culture media, nor-NOHA (50 PM)): did not restore CAR T cell expansion
